Where two headings read alike, the source gives them in different places.
How the values were obtained:
resting heart rate = assay: Effect on resting (basic) heart rate in reserpinized, vagotomized rats (Experiment 3); assay type: in vivo, rat; conditions: i.v., cumulative
Description: (§1) The effects of certain compounds on isoproterenol-induced tachycardia as well as on resting heart rate were studied in reserpinized, vagotomized rats. The rat was anaesthetized with pentobarbital 18 hours after treatment with reserpine (8 mg./kg., i.p.) and vagotomized bilaterally in the neck. Heart rate was recorded by a cardiotacho-meter (RT-2, Nihonkoden). After the control response to l-isoproterenol (0.1 μg./kg., i.v.) was obtained, each compound tested was injected intravenously in such doses that the cumulative dose increased four-fold: 0.01-0.04-0.16-0.64-2.56 mg./kg., at 20 minute intervals. Ten minutes after each dose of the compound an intravenous injection of l-isoproterenol (0.1 μg./kg.) was administered and the increase in heart rate was recorded. The dose producing 50% blockade of the positive chronotropic control response to l-isoproterenol (ED-50) was estimated in each experiment from curves obtained by plotting inhibition percentage against log cumulative dose.
abbreviations; ^a) BHR : Basic heart rate (the heart rate just before
administration of l-isoproterenol, unit = beat per minute)

adrenergic β-receptor [1] = biological target: T1, adrenergic β-receptor (Rattus norvegicus, UniProt P18090); assay: Blockade of isoproterenol-induced tachycardia in reserpinized, vagotomized rats (Experiment 3); assay type: in vivo; conditions: for Res: Response (percent increase of heart rate induced by 0.1 μg/kg l-isoproterenol): i.v., cumulative, Control = 100; for ED50: rat, iv, read-out: ED50 (dose producing 50% blockade of the positive chronotropic control response to l-isoproterenol)
T1 construct: studied in reserpinized, vagotomized rats; from tissue; host or cells: heart in the living, anaesthetized rat (in vivo heart rate)
T1 sequence (P18090 whole entry): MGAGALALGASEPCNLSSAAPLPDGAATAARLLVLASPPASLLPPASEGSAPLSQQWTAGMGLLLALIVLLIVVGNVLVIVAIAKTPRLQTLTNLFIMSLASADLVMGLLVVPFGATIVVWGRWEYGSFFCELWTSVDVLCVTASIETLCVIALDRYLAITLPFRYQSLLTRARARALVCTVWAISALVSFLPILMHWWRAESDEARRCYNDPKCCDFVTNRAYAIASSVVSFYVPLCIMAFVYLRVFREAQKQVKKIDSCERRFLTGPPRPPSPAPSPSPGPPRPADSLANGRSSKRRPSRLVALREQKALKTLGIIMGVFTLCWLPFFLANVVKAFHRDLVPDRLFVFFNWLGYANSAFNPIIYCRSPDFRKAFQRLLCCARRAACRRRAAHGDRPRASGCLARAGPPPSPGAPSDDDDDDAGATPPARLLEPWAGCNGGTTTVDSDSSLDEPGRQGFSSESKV
Description: as §1, with “After the control response to l-isoproterenol (0.1 μg./kg., i.v.) was obtained, each compound tested was injected intravenously in such doses that the cumulative dose increased four-fold: 0.01-0.04-0.16-0.64-2.56 mg./kg., at 20 minute intervals.” left out

[2] = Acute intravenous toxicity in white mice; conditions: mouse, in vivo, injected intravenously
adrenergic β-receptor [3] = biological target: T2, adrenergic β-receptor (Cavia porcellus, UniProt H0W3H1); assay: Antagonism of l-isoproterenol-induced increase of atrial contraction, isolated guinea pig atria (Experiment 1); design: species or system male Hartley guinea pig; conditions: l-isoproterenol 5 × 10^-8 g./ml., 10 minutes previously
T2 construct: The atria obtained from a male Hartley guinea pig; from tissue; host or cells: isolated atria of male Hartley guinea pig
T2 sequence (H0W3H1 1-470): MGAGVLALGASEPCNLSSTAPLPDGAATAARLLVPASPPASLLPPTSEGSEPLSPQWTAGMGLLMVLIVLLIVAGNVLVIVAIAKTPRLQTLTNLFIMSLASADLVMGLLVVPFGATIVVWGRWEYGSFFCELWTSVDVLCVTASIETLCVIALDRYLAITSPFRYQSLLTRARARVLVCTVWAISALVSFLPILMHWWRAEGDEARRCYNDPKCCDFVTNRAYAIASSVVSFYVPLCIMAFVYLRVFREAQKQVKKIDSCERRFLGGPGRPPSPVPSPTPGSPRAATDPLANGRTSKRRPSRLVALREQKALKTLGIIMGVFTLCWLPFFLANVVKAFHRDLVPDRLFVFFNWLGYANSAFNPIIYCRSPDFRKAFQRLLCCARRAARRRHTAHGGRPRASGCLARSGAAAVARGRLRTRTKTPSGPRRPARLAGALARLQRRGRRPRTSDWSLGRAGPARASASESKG
Description: The atria obtained from a male Hartley guinea pig weighing 300-500 g. were trimmed and placed in chambers containing Tyrode solution oxygenated with 95% oxygen and 5% carbon dioxide and maintained at 30° C.
Contractile force was recorded by an isometric lever connected to a strain gauge tension transducer. Antagonistic activity of the tested drugs on the 1-isoproterenol-induced increase of the atrial contraction was investigated.
The first control response was measured adding 1-isoproterenol to the bath fluid to a final concentration of 5 × 10^-8 g./ml. Then the preparation was washed and the same procedure was repeated after application of the drugs to be tested, i.e. 4-(3-isopropylamino-2-hydroxypropoxy)indene and 4-(3-isopropylamino-2-hydroxypropoxy)indane (final concentrations of 8 × 10^-9 g./ml. and 5 × 10^-8 g./ml.), 10 minutes previously.

[4] = tested on: heart devoid of autonomous nervous control; assay: Direct effect on heart rate of a heart devoid of autonomous nervous control, reserpinized, adrenalectomized, vagotomized rats (Experiment 2); assay type: in vivo, Wistar rats; conditions: for Change of heart rate (%): + increase, - decrease
Description: Experiment 2 […] Both adrenal glands were removed and bilateral vagotomy in the neck was performed. […] (RM 100). In Table 2, the symbol + represents an increase in heart rate, while the symbol - represents a decrease in heart rate. The standard error is shown in parenthesis.

[5] = cumulative dose, l-isoproterenol 0.1 μg./kg. i.v., ± standard error
[6] = final concentration 5 × 10^-8 g./ml.
[7] = final concentration 8 × 10^-9 g./ml.
[8] = 0.01 mg./kg. i.v., 1 minute after
[9] = 0.01 mg./kg. i.v., 5 minutes after
[10] = 0.01 mg./kg. i.v., 15 minutes after
[11] = 0.01 mg./kg. i.v., 30 minutes after
[12] = 0.05 mg./kg. i.v., 1 minute after
[13] = 0.05 mg./kg. i.v., 5 minutes after
[14] = 0.05 mg./kg. i.v., 15 minutes after
[15] = 0.05 mg./kg. i.v., 30 minutes after
[16] = 0.10 mg./kg. i.v., 1 minute after
[17] = 0.10 mg./kg. i.v., 5 minutes after
[18] = 0.10 mg./kg. i.v., 15 minutes after
[19] = 0.10 mg./kg. i.v., 30 minutes after

Row | ED50 (adrenergic β-receptor [1]; [5]) [mg/kg] | Compound | BHR: Basic heart rate (just before administration of l-isoproterenol) (resting heart rate; 0.01 mg/kg) [beat per minute] | BHR: Basic heart rate (just before administration of l-isoproterenol) (resting heart rate; 0.04 mg/kg) [beat per minute] | BHR: Basic heart rate (just before administration of l-isoproterenol) (resting heart rate; 0.16 mg/kg) [beat per minute] | BHR: Basic heart rate (just before administration of l-isoproterenol) (resting heart rate; 0.64 mg/kg) [beat per minute] | Res: Response (percent increase of heart rate induced by 0.1 μg/kg l-isoproterenol) (adrenergic β-receptor [1]; 0.01 mg/kg) [%] | Res: Response (percent increase of heart rate induced by 0.1 μg/kg l-isoproterenol) (adrenergic β-receptor [1]; 0.04 mg/kg) [%] | Res: Response (percent increase of heart rate induced by 0.1 μg/kg l-isoproterenol) (adrenergic β-receptor [1]; 0.16 mg/kg) [%] | Res: Response (percent increase of heart rate induced by 0.1 μg/kg l-isoproterenol) (adrenergic β-receptor [1]; 0.64 mg/kg) [%] | Inhibition rate (%) (adrenergic β-receptor [3]; [6]) | Inhibition rate (%) (adrenergic β-receptor [3]; [7]) | Change of heart rate (%) [4, 8] | Change of heart rate (%) [4, 9] | Change of heart rate (%) [4, 10] | Change of heart rate (%) [4, 11] | Change of heart rate (%) [4, 12] | Change of heart rate (%) [4, 13] | Change of heart rate (%) [4, 14] | Change of heart rate (%) [4, 15] | Change of heart rate (%) [4, 16] | further results
1 | 0.088 ± 0.011 | CCC(C)NCC(O)COc1cccc2c1C=CC2 (stereo not drawn) [4-(3-sec-butylamino-2-hydroxypropoxy)indene] | 200±13 | 218±13 | 225±14 | 236±16 | 81±4 | 65±1 | 40±5 | 17±3 | – | – | – | – | – | – | – | – | – | – | – | BHR: Basic heart rate (just before administration of l-isoproterenol) (resting heart rate; 2.56 mg/kg): 228±23 beat per minute; Res: Response (percent increase of heart rate induced by 0.1 μg/kg l-isoproterenol) (adrenergic β-receptor [1]; 2.56 mg/kg): 6±1%
2 | 0.065 ± 0.013 | CC(C)NCC(O)COc1cccc2c1CCC2 (stereo not drawn) [4-(3-isopropylamino-2-hydroxypropoxy)indane] | – | 245±15 | 236±14 | 238±17 | – | 54±5 | 33±14 | 12±1 | 88.4 | 30.4 | -0.9% | +0.3% | -1.9% | -1.7% | -2.1% | -2.0% | -2.0% | -4.6% | -5.9% | Change of heart rate (%) [4, 17]: -8.7%; Change of heart rate (%) [4, 18]: -8.7%; Change of heart rate (%) [4, 19]: -5.4%; effect on the cardiac function (in words) ([4]; Experiment 2): deleterious effects on the cardiac function
3 | – | C=CCc1ccccc1OCC(O)CNC(C)C (stereo not drawn) [alprenolol (Aptin), alprenolol, reference compound] | 233±12 | 247±11 | 261±7 | 262±4 | 65±3 | 44±3 | 17±3 | 3±1 | – | – | – | – | – | – | – | – | – | – | – | ED50 (adrenergic β-receptor [1]): 0.03 ± 0.003 mg/kg

Row | Compound | ED50 (adrenergic β-receptor [1]; [5]) [mg/kg] | BHR: Basic heart rate (just before administration of l-isoproterenol) (resting heart rate; 0.01 mg/kg) [beat per minute] | BHR: Basic heart rate (just before administration of l-isoproterenol) (resting heart rate; 0.04 mg/kg) [beat per minute] | BHR: Basic heart rate (just before administration of l-isoproterenol) (resting heart rate; 0.16 mg/kg) [beat per minute] | BHR: Basic heart rate (just before administration of l-isoproterenol) (resting heart rate; 0.64 mg/kg) [beat per minute] | Res: Response (percent increase of heart rate induced by 0.1 μg/kg l-isoproterenol) (adrenergic β-receptor [1]; 0.01 mg/kg) [%] | Res: Response (percent increase of heart rate induced by 0.1 μg/kg l-isoproterenol) (adrenergic β-receptor [1]; 0.04 mg/kg) [%] | Res: Response (percent increase of heart rate induced by 0.1 μg/kg l-isoproterenol) (adrenergic β-receptor [1]; 0.16 mg/kg) [%] | Res: Response (percent increase of heart rate induced by 0.1 μg/kg l-isoproterenol) (adrenergic β-receptor [1]; 0.64 mg/kg) [%] | Inhibition rate (%) (adrenergic β-receptor [3]; [6]) | Inhibition rate (%) (adrenergic β-receptor [3]; [7]) | Change of heart rate (%) [4, 8] | Change of heart rate (%) [4, 9] | Change of heart rate (%) [4, 10] | Change of heart rate (%) [4, 11] | Change of heart rate (%) [4, 12] | Change of heart rate (%) [4, 13] | Change of heart rate (%) [4, 14] | Change of heart rate (%) [4, 15] | Change of heart rate (%) [4, 16] | further results
4 | CC(C)NCC(O)COc1cccc2c1C=CC2 (racemic) [4-(3-isopropylamino-2-hydroxypropoxy)indene] | 0.039 ± 0.002 | 235±12 | 246±13 | 245±14 | 245±12 | 74±3 | 50±2 | 23±2 | 5±1 | 81.5 | 30.7 | +2.4% | +3.8% | +3.2% | +1.7% | +5.6% | +8.4% | +8.7% | +5.2% | +1.5% | LD50 [2]: 25 mg/kg; Change of heart rate (%) [4, 17]: +4.1%; Change of heart rate (%) [4, 18]: +3.5%; Change of heart rate (%) [4, 19]: +4.0%
